What was measured:
Type in all cases: functional
Details in all cases: read-out: IZ
Escherichia coli = experiment: Antibiotic activity against Escherichia coli at 200 ug/disk after 24 hrs by disk diffusion method
Staphylococcus aureus = experiment: Antibiotic activity against Staphylococcus aureus at 200 ug/disk after 24 hrs by disk diffusion method
Candida albicans = experiment: Antifungal activity against Candida albicans at 200 ug/disk after 24 hrs by disk diffusion method

Row | SMILES | zone of inhibition at 200 µg/disc (Escherichia coli) [mm] | zone of inhibition at 200 µg/disc (Staphylococcus aureus) [mm] | zone of inhibition at 200 µg/disc (Candida albicans) [mm]
1 | CO[C@@H]1O[C@@H](OC)c2c1ccc([C@@]1(C)CCCC(C)(C)C1)c2[C@@H](C)C(=O)O [MEMBRANOLIDE C] | 8 | 0 | 4
2 | CO[C@H]1O[C@@H](OC)c2c1ccc([C@@]1(C)CCCC(C)(C)C1)c2[C@@H](C)C(=O)O [MEMBRANOLIDE D] | 6 | 7 | 9
